Experiments:
Cytochrome P450 3A4 = Cytochrome P450 3A4 (Homo sapiens, UniProt P08684)
hERG (KCNH2) = hERG (KCNH2) (Homo sapiens, UniProt Q12809); assay: Displacement of labeled dofetilide from human ERG at 3 uM; conditions: probe labeled dofetilide
Cytochrome P450 2D6 = Cytochrome P450 2D6 (Homo sapiens, UniProt P10635)
Histamine H1 receptor = Histamine H1 receptor (Homo sapiens, UniProt P35367); assay: Binding affinity to histamine H1 receptor
[1] = Ratio of drug level in brain to plasma in rat at 1 mg/kg, iv after 4 hrs; type: ADME, organism-based; set-up: dose 1 mg/kg, route intravenous; conditions: read-out: BPR
[2] = Drug uptake in rat brain at 1 mg/kg, iv after 4 hrs; type: ADME, organism-based; set-up: dose 1 mg/kg, route intravenous; conditions: read-out: Drug uptake

Histamine H1 receptor, sequence (P35367 whole entry): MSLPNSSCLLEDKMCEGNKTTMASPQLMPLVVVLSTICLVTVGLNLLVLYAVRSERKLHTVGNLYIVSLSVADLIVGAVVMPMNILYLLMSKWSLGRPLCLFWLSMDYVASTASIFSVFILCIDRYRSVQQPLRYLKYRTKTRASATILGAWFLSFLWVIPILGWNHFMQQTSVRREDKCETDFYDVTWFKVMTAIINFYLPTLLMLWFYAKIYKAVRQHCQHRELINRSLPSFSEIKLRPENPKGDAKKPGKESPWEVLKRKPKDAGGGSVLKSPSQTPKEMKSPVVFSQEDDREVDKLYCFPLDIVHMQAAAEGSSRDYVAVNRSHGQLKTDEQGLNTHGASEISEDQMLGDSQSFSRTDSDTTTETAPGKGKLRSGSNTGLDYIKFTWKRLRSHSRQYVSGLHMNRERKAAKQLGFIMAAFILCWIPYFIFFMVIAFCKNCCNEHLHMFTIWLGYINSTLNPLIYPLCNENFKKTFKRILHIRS
Cytochrome P450 3A4, sequence (P08684 whole entry): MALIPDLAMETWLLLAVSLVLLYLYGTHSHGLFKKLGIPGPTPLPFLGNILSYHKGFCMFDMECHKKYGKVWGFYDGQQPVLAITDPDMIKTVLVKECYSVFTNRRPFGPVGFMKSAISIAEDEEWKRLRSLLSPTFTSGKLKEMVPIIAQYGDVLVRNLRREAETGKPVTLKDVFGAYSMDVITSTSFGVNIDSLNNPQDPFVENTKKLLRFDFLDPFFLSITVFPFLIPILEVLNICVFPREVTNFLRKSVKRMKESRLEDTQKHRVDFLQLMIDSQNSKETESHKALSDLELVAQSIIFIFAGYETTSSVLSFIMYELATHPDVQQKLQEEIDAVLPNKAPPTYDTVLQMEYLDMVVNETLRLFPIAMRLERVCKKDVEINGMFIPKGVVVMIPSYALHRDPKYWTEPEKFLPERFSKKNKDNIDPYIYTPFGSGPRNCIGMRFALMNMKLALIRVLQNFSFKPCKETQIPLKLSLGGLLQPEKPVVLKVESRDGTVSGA
hERG (KCNH2), sequence (Q12809 whole entry): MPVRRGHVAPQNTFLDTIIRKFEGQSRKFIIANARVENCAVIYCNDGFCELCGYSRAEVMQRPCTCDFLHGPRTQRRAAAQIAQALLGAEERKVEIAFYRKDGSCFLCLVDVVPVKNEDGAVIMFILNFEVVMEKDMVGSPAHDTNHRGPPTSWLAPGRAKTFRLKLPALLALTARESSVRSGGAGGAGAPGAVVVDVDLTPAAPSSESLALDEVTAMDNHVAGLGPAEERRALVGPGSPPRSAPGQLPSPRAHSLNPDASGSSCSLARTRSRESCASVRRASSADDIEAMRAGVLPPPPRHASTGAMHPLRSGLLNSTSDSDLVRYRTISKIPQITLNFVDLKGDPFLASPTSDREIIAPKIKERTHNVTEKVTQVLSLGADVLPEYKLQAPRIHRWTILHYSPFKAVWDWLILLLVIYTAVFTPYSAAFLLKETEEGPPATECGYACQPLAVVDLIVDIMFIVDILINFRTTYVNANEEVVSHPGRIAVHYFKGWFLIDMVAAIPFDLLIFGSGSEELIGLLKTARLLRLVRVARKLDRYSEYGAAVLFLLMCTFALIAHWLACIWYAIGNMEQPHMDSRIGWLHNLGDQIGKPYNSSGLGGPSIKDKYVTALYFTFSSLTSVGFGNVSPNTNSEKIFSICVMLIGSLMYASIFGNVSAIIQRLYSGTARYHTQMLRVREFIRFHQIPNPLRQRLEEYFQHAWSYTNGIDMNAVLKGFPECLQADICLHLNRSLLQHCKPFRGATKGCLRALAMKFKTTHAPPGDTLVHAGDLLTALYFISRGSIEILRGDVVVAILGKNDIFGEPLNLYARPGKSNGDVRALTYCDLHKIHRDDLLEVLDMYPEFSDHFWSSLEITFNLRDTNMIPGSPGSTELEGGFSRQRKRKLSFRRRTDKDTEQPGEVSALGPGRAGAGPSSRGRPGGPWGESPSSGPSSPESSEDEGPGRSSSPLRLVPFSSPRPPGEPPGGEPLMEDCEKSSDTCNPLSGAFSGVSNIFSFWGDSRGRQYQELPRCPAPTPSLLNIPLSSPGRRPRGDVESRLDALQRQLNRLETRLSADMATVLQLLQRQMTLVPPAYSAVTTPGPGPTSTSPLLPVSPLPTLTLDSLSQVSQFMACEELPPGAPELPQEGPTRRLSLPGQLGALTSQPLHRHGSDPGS
Cytochrome P450 2D6, sequence (P10635 whole entry): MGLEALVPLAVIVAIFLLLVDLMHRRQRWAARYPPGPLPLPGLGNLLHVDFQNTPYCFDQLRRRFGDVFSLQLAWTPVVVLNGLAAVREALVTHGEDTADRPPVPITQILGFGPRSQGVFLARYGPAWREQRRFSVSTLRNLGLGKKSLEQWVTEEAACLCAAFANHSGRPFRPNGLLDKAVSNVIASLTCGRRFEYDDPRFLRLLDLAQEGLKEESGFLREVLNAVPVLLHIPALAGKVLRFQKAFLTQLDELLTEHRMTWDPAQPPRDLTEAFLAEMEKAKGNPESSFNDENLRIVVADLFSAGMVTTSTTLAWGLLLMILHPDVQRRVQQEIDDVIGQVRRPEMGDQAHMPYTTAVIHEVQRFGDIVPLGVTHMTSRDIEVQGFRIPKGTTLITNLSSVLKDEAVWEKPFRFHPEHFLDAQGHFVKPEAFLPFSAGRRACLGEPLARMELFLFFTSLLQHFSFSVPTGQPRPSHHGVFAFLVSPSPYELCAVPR

Row | SMILES | IC50 (Cytochrome P450 3A4) [µM] | IC50 (Cytochrome P450 2D6) [µM] | Ki (Histamine H1 receptor) [µM] | Kp at 4 h [1] | concentration at 4 h [2] [ng/g] | inhibition at 3 µM (hERG (KCNH2)) [%]
1 | CCN(C)CCC1=C(Cc2cnccn2)c2ccccc2C1 | > 10 | 4.35 | 0.0072 | – | – | 0
2 | CCCN(C)CCC1=C(Cc2cnccn2)c2ccccc2C1 | 4.04 | 0.973 | 0.041 | – | – | 0
3 | CN(CCF)CCC1=C(Cc2cnccn2)c2ccccc2C1 | > 10 | 3.09 | – | – | – | 0
4 | C[C@H](C1=C(CCN(C)CCF)Cc2ccccc21)c1cnccn1 | > 10 | 2.61 | 0.013 | – | – | 0
5 | C[C@H](C1=C(CCN(C)CCC#N)Cc2ccccc21)c1cnccn1 | > 10 | > 10 | 0.109 | – | – | 0
6 | C[C@H](C1=C(CCN(C)CCC(F)(F)F)Cc2ccccc21)c1cnccn1 | > 5 | 7.22 | 0.091 | – | – | 0
7 | c1ccc2c(c1)CC(CCN1CCC1)=C2Cc1cnccn1 | > 10 | 8.85 | 0.0043 | – | – | 0
8 | c1ccc2c(c1)CC(CCN1CCCC1)=C2Cc1cnccn1 | > 10 | 3.38 | 0.0028 | – | – | 0
9 | FC1CN(CCC2=C(Cc3cnccn3)c3ccccc3C2)C1 | > 10 | 6.47 | 0.049 | – | – | 0
10 | FC1(F)CN(CCC2=C(Cc3cnccn3)c3ccccc3C2)C1 | – | > 10 | 4.61 | – | – | 0
11 | FC1(F)CCN(CCC2=C(Cc3cnccn3)c3ccccc3C2)C1 | 1.4 | 7.53 | 0.249 | – | – | 0
12 | FC1CCN(CCC2=C(Cc3cnccn3)c3ccccc3C2)C1 (stereo unspecified) | > 10 | 4.29 | 0.0105 | 3.9 | 57 | 0
13 | C[C@H](C1=C(CCN(C)CC2CCOCC2)Cc2ccccc21)c1cnccn1 | > 10 | 9.37 | 0.0152 | – | – | 0

The next lines start with results.

Row | IC50 (Cytochrome P450 3A4) [µM] | IC50 (Cytochrome P450 2D6) [µM] | Ki (Histamine H1 receptor) [µM] | Kp at 4 h [1] | concentration at 4 h [2] [ng/g] | SMILES | inhibition at 3 µM (hERG (KCNH2)) [%]
14 | > 10 | > 10 | 0.032 | – | – | C[C@H](C1=C(CCN(C)CC#N)Cc2ccccc21)c1cnccn1 | 0
15 | 2.75 | 4.36 | 0.0081 | – | – | C[C@H](C1=C(CCN(C)Cc2ccco2)Cc2ccccc21)c1cnccn1 | 0
16 | 1.83 | 1.43 | 0.0067 | – | – | C[C@H](C1=C(CCN(C)Cc2cccs2)Cc2ccccc21)c1cnccn1 | 0
17 | 2.82 | > 10 | 0.048 | – | – | C[C@H](C1=C(CCN(C)Cc2nccs2)Cc2ccccc21)c1cnccn1 | 0
18 | 4.84 | > 10 | 0.162 | – | – | C[C@H](C1=C(CCN(C)Cc2ncco2)Cc2ccccc21)c1cnccn1 | 0
19 | 4.42 | 5.85 | 0.0088 | – | – | C[C@H](C1=C(CCN(C)Cc2ncc[nH]2)Cc2ccccc21)c1cnccn1 | 0
20 | 1.54 | 5.68 | 0.028 | – | – | C[C@H](C1=C(CCN(C)Cc2nccn2C)Cc2ccccc21)c1cnccn1 | 0
21 | 4.78 | 5.71 | 0.0139 | – | – | C[C@H](C1=C(CCN(C)Cc2ccccn2)Cc2ccccc21)c1cnccn1 | 0
22 | – | 7.96 | 0.0049 | – | – | C[C@H](C1=C(CCN(C)Cc2ccncc2)Cc2ccccc21)c1cnccn1 | 0
23 | > 10 | > 10 | 0.0247 | – | – | C[C@H](C1=C(CCN(C)Cc2cnccn2)Cc2ccccc21)c1cnccn1 | 0
